Test results taken from PMC8241168, “Cholesterol–PEG comodified poly (N-butyl) cyanoacrylate nanoparticles for brain delivery: in vitro and in vivo evaluations” (Drug Delivery, 2017).

Tests used:
[1] = Pharmacokinetic study, plasma C6 after IV administration; format: in vivo; conditions: rats, IV 0.5 mg/kg
Protocol: Wistar rats (180–200 g) were obtained from the Institute of Laboratory Animal Science, Chinese Academy of Medical Sciences, Beijing, China, and all animal experiments were performed in accordance with the regulations of the Animal Care and Use Committee of the Chinese Academy of Medical Sciences. […] A standard diet of food and water was supplied ad libitum during the experiments. A polyethylene catheter (Portex, Hythe, UK) was inserted through the right jugular veins of all rats one day prior to the pharmacokinetic experiment, and flushed with 100 U/mL heparin in 0.9% saline. […] Subsequently, 100 μL of plasma was obtained by centrifugation at 5000 rpm for 7 min at 0 °C, and the serum was collected. The measurement of C6 in the samples was analyzed by a fluorescence microplate reader as described earlier.

bEnd.3 cells = assay: Uptake of C6 CLS-PEG NPs by bEnd.3 cells; format: cell-based, mouse; conditions: 20–100 μg/mL, 37 °C, 30 min to 4 h
Protocol: BEnd. 3 cells were seeded into a 6-well plate and cultured for 24 h. Then, the medium was replaced with different concentrations (20–100 μg/mL) of free C6 or CLS-PEG NPs encapsulated with C6, and incubated at 37 °C for 2 h. To study the effects of incubation time on CLS-PEG NPs uptake, the CLS-PEG NPs loaded C6 (50 μg/mL) and the free C6 solution were added into the wells, and the plate was incubated at 37 °C for 30 min, 1 h, 2 h, or 4 h. At the end of the experiment, the cells were washed with ice-cold PBS three times. Subsequently, the cells were lysed with cell lysate (Beijing Saichi Biotechnology Co., Ltd., China). The quantitative measurement of intracellular C6 in bEnd.3 cell lysates was analyzed by a fluorescence microplate reader as described earlier. Total cell protein concentrations of the bEnd.3 cells were determined using a BCA protein assay (Beijing Kangwei Century Biotechnology Co., Ltd., China). The uptake of CLS-PEG NPs by bEnd.3 cells was calculated and expressed as the amount of CLS-PEG NPs (μg) taken up per mg of cell protein.

[2] = Specificity to the brain, confocal laser scanning microscopy of brain sections; format: in vivo; conditions: rats, IV, 0.5 h after dosing
Protocol: Subsequently, the brain tissues were removed, washed with PBS, and fixed in 4% formaldehyde solution. After snap freezing in liquid nitrogen, the samples were embedded in […]. compound (Sakura Finetechnical, Tokyo, Japan) and cut into thin sections (10 μm). The slices were stained for cell nuclei with DAPI for 15 min in the dark and then washed three times with cold PBS. The sample was monitored by confocal laser scanning microscopy (Zeiss LSM710, Göttingen, Germany). ZEN Image Software 2012 was used to perform the image recording and image analysis. The image included 512 × 512 pixels measuring 2.77 × 2.77 μm^2.

[3] = Tissue distribution studies after IV administration; format: in vivo, rats; conditions: IV 0.5 mg/kg; for Tmax / AUC0-t / Cmax: C6, rats; for AUC0-t / Cmax: n = 3
Protocol: Wistar rats (180–200 g) were obtained from the Institute of Laboratory Animal Science, Chinese Academy of Medical Sciences, Beijing, China, and all animal experiments were performed in accordance with the regulations of the Animal Care and Use Committee of the Chinese Academy of Medical Sciences. […] A standard diet of food and water was supplied ad libitum during the experiments. […] The samples were stored at −20 °C until further analysis. The drug-targeting index (DTI) is considered an important parameter for tissue targeting efficiency, and was calculated using the following formula: DTI=AUCx/AUCp(NPs)/AUCx/AUCP(Free drug) Where “AUCx” is the AUC of tissue x, and “AUCp” is the AUC of the plasma.

AUC0-t ([1]; C6 in plasma, n = 6): 15.8 ± 2.4 µg·min/mL | AUC0-∞ ([1]; C6 in plasma, n = 6): 16.0 ± 2.3 µg·min/mL | C0 ([1]; C6 in plasma, n = 6): 828.4 ± 139.0 ng/mL | CL ([1]; C6 in plasma, n = 6): 6.4 ± 0.9 mL/min | Vd, λz ([1]; C6 in plasma, n = 6): 0.6 ± 0.3 L | t1/2, λz ([1]; C6 in plasma, n = 6): 60.1 ± 24.0 min | time after injection at which C6 was undetectable in plasma [1]: 4 h | C6 fluorescent signal in the brain [2]: too weak to be distinguished | Tmax ([3]; Brain): 30 min | AUC0-t ([3]; Brain): 3.84 ± 0.21 µg·min/mL | Cmax ([3]; Brain): 45.64 ± 2.25 ng/g | Tmax ([3]; Heart): 15 min | AUC0-t ([3]; Heart): 8.45 ± 0.93 µg·min/mL | Cmax ([3]; Heart): 113.89 ± 16.48 ng/g | Tmax ([3]; Kidney): 30 min | AUC0-t ([3]; Kidney): 2.56 ± 0.44 µg·min/mL | Cmax ([3]; Kidney): 22.20 ± 1.91 ng/g | Tmax ([3]; Liver): 15 min | AUC0-t ([3]; Liver): 141.71 ± 13.25 µg·min/mL | Cmax ([3]; Liver): 2685.53 ± 356.67 ng/g | Tmax ([3]; Lung): 30 min | AUC0-t ([3]; Lung): 63.88 ± 5.62 µg·min/mL | Cmax ([3]; Lung): 900.02 ± 67.86 ng/g | Tmax ([3]; Spleen): 15 min | AUC0-t ([3]; Spleen): 271.02 ± 16.03 µg·min/mL | Cmax ([3]; Spleen): 3848.83 ± 339.27 ng/g | distribution of C6 in the brain ([3]; rats): very little distribution in the brain
SMILES: CCN(CC)c1ccc2cc(-c3nc4ccccc4s3)c(=O)oc2c1 [Free drug, coumarin-6]
cellular uptake by bEnd.3 cells (bEnd.3 cells): only minimally entered the cells
